Assay results as given in patent publication US20160009772A1, “CELL PENETRATING PEPTIDES WHICH BIND IRF5” (priority 2012, published 2016).
Like-named read-outs stand apart in the source and are kept apart here.

Key:
IRF5 (222-467, S430D) = target: T1, IRF5 (222-467, S430D) (Homo sapiens, UniProt Q13568, S440D); assay: FRET IRF5 dimerization inhibition assay (TR-FRET), S430D construct; type: binding
T1 construct: 250 nM His tag IRF5(222-467, S430D); 100 nM biotin tag IRF5(222-467, S430D)
Experimental: (§1) The following steps may then be performed: • 1) Prepare 100 nM of biotin-IRF5(S430D) (0.96 mg/ml or 32 uM,) and 250 nM His-IRF5(S430D) (1.51 mg/ml or 51 uM,) in AB1 • 2) Add 50 ul/well of solution in (1) into peptide solutions in 96-well PP plates as described above and incubate at RT for 20 min. • 3) Prepare 10 nM Eu-labeled streptavidin and 80 nM APC-labeled anti-His Ab in AB2 (AB1 w/o DTT) containing 5% DMSO and add 17 ul/well into solutions in (4). • 4) Transfer 30 ul/well into 384-well PP plate (Matrix) and incubate at 40 C for 1 day.
(§2) To test the ability of compounds to inhibit IRF5 dimerization a time-resolved fluorescence resonance energy transfer (TR-FRET) was developed. Binding of recombinant His tagged IRF5 (222-467 constructs) to recombinant biotin tagged IRF5 was measured by FRET between Europium labeled anti-GST antibody and Stretavidin-conjugated Allophycocyanin. […] The IRF5 S430 and WT (222-467) constructs were then used to test the ability of compounds to inhibit dimerization. […] Fifty microliters per well of 100 nM biotin tag IRF5(222-467, S430D) and 250 nM His tag IRF5(222-467, S430D) in Assay Buffer (50 mM Tris-HCl, pH 7.4, 100 mM NaCl, 1 mM DTT and 0.2 mg/ml BSA) were added. The samples were incubated at room temperature for 20 min. Seventeen microliters per well of detection solution containing 10 nM europium (Eu) conjugated streptavidin and 80 nM allophycocyanin (APC) conjugated anti-His antibody (Columbia Biosciences) in Assay Buffer (without DTT) were added. The samples were incubated at room temperature for 60 min followed by overnight incubation at 40 C and 30 ul per well were transferred to 384-well polystyrene plates (Matrix, Thermal Scientific) in duplicates. Assay signals were monitored by reading excitation at 340 nm and emission fluorescence at 615 nm and 665 nm on an Envision reader. TR-FRET signals were calculated by the ratio of acceptor to donor signals after subtracting both blank and donor cross-talk values from acceptor signal (Huang, K S and Vassilev, L T, Methods Enzymol., 399, 717-728 (2005)). The data were processed in Excel XLfit and the IC50 values were calculated using a nonlinear curve-fitting algorithm (four parameter equation). The data represent an average of 3 independent experiments (each run in triplicates) and the reported errors represent standard deviation (s.d.).

Wild type IRF5 (222-467) = target: T2, Wild type IRF5 (222-467) (Homo sapiens, UniProt Q13568); assay: FRET IRF5 dimerization inhibition assay (TR-FRET), WT construct; type: binding
T2 construct: S430D phosphomimetic construct of IRF5 (222-467) as well as WT (222-467)
Experimental: as §1, §2

[1] = test system: NFκB nuclear translocation in HeLa cells; assay: NFκB translocation assay (TNFα mediated, high content imaging); type: cell-based; details: 50 μM peptide; TNFα induced NFkB translocation in HeLa cells
Experimental: The selectivity of the CPP's over NFκB was determined using a high content screening assay wherein TNFα mediated nuclear translocation of NFκB was determined by imaging.
HeLa cells were plated at 5000 cells/well in 96 well Perkin Elmer ViewPlates and incubated overnight at 37 C. Media was aspirated and compounds pre-diluted in 0.05% BSA Hanks/20 mM HEPES were added in duplicate at various concentrations for 30 minutes. Wells were stimulated with 20 μl of 150 ng/ml TNFα for 30 minutes at 37 C. Wells were aspirated and the cells were fixed with 3.7% formaldehyde solution for 15 minutes at room temperature. The fixative was removed and the plates were washed with PBS. The NFkB translocation assay, based upon detection of an antibody to p65 (Thermo-Fisher), was completed and read on the Perkin Elmer Operetta at 40×.

THP-1 cells = assay: Cytotoxicity (cell titer glo) as headed in Table 3; type: cell-based, human; details: cytotoxicity defined as greater than 40% loss of cells
Experimental: THP-1 cells obtained from ATCC were seeded at 50 k cells/100 μl/well in a 96 well plate (Corning Cat#3340). Peptides were dissolved in DMSO at 10 mM as stock solution, then 1:10 in water at 1 mM, mix well. R848 (Enzo Cat#ALX-420-038-M005) was dissolved in DMSO (Sigma Cat#D2650) at 10 mM. […] R848 was added to the 96-well cell plate at a final concentration of 10 μM, and cells were incubated at 37° C. for 24 h. The supernatant was tested for IL6 by Alphalisa (Perkin Elmer AL233C) as per manufacturer's instructions. Viability of the cells was measured by cell titer glo (Promega).

[2] = Table 1, S430D phosphomimetic construct of IRF5 (222-467), average of 3 experiments ± s.d., read-out: S430D IC50
[3] = Table 1, WT IRF5 (222-467), average of 3 experiments ± s.d., read-out: WT IC50
[4] = Table 2, WT IRF5 (222-467), read-out: WT IC50

T2 sequence (Q13568 232-477): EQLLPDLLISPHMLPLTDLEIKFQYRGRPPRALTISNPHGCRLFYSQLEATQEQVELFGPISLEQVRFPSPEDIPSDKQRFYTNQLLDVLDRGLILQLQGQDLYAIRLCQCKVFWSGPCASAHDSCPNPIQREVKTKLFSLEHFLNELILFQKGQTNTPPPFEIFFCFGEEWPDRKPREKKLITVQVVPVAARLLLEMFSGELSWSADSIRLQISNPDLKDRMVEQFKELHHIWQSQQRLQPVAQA
T1 sequence (Q13568 232-477 S440D): as the sequence (Q13568 232-477) above, with S209D counted along it

Compound	IC50 (IRF5 (222-467, S430D); [2]) [µM]	IC50 (Wild type IRF5 (222-467); [3]) [µM]	NFkB selectivity (50 μM) [1]	Cytotoxicity in THP-1 cells at 10 μM (THP-1 cells)	IC50 (Wild type IRF5 (222-467); [4]) [µM]	also measured
CSCC[C@H](NC(C)=O)C(=O)N[C@@H](C)C(=O)N[C@@H](CC(N)=O)C(=O)N[C@@H](CC(C)C)C(=O)NCC(=O)N[C@@H](Cc1ccc(O)cc1)C(=O)N[C@@H](Cc1c[nH]c2ccccc12)C(=O)N[C@@H](CC(C)C)C(=O)N[C@@H](CC(C)C)C(=O)N[C@@H](CC(C)C)C(=O)N[C@@H](CC(C)C)C(=O)N[C@@H](Cc1ccccc1)C(=O)N[C@H](C(=O)N[C@H](C(=O)N[C@@H](CCSC)C(=O)N[C@@H](Cc1c[nH]c2ccccc12)C(=O)N[C@H](C(=O)N[C@@H](CC(=O)O)C(=O)N[C@H](C(=O)NCC(=O)N[C@@H](CC(C)C)C(=O)N[C@@H](C)C(=O)N[C@@H](CCCCN)C(=O)N[C@@H](CCCCN)C(=O)N[C@@H](CCCNC(=N)N)C(=O)N1CCC[C@H]1C(=O)N[C@@H](CCCCN)C(=O)N1CCC[C@H]1C(N)=O)C(C)C)[C@@H](C)O)[C@@H](C)O)C(C)C [SEQ ID NO 4]	26.4 ± 4.5	19.5 ± 4	No inhibition	None	–	–
Ac-YLKFIPLKRAIWLIK-NH2 [SEQ ID NO 23, Ac-YLKFIPLKRAIWLIK-NH2, reference compound]	–	–	–	–	–	IC50 (IRF5 (222-467, S430D)): > 75 µM; affinity in FRET dimerization assay (IRF5 (222-467, S430D); S430D and WT IRF5 (222-467) constructs): does not display any affinity; IC50 (Wild type IRF5 (222-467)): > 75 µM
CSCC[C@H](NC(C)=O)C(=O)N[C@@H](C)C(=O)N[C@@H](CC(N)=O)C(=O)N[C@@H](CC(C)C)C(=O)NCC(=O)N[C@@H](Cc1ccc(O)cc1)C(=O)N[C@@H](Cc1c[nH]c2ccccc12)C(=O)N[C@@H](CC(C)C)C(=O)N[C@@H](C)C(=O)N[C@@H](CC(C)C)C(=O)N[C@@H](CC(C)C)C(=O)N[C@@H](Cc1ccccc1)C(=O)N[C@H](C(=O)N[C@H](C(=O)N[C@@H](CCSC)C(=O)N[C@@H](Cc1c[nH]c2ccccc12)C(=O)N[C@H](C(=O)N[C@@H](CC(=O)O)C(=O)N[C@H](C(=O)NCC(=O)N[C@@H](CC(C)C)C(=O)N[C@@H](Cc1ccccc1)C(=O)N[C@@H](CCCCN)C(=O)N[C@@H](CCCCN)C(=O)N[C@@H](CCCNC(=N)N)C(=O)N1CCC[C@H]1C(=O)N[C@@H](CCCCN)C(=O)N1CCC[C@H]1C(N)=O)C(C)C)[C@@H](C)O)[C@@H](C)O)C(C)C [SEQ ID NO 5]	26.6 ± 5.4	22.4 ± 6.2	No inhibition	None	–	–
Ac-PFPPLPIGEEAPKDDMVRFFKDLHQYLNVV-NH2 [SEQ ID NO 10]	–	–	–	–	0.35	–
Ac-IRLQISNPYLKFIPLKRAIWLIK-NH2 [SEQ ID NO 13]	–	–	No inhibition	None	–	–
CSCC[C@H](NC(C)=O)C(=O)N[C@@H](C)C(=O)N[C@@H](CC(N)=O)C(=O)N[C@@H](CC(C)C)C(=O)NCC(=O)N[C@@H](Cc1ccc(O)cc1)C(=O)N[C@@H](Cc1c[nH]c2ccccc12)C(=O)N[C@@H](CC(C)C)C(=O)N[C@@H](CC(C)C)C(=O)N[C@@H](C)C(=O)N[C@@H](CC(C)C)C(=O)N[C@@H](Cc1ccccc1)C(=O)N[C@H](C(=O)N[C@H](C(=O)N[C@@H](Cc1ccc(O)cc1)C(=O)N[C@@H](Cc1c[nH]c2ccccc12)C(=O)N[C@H](C(=O)N[C@@H](CC(=O)O)C(=O)N[C@@H](CC(C)C)C(=O)NCC(=O)N[C@@H](CC(C)C)C(=O)N[C@H](C(=O)N[C@@H](CCCCN)C(=O)N[C@@H](CCCCN)C(=O)N[C@@H](CCCNC(=N)N)C(=O)N1CCC[C@H]1C(=O)N[C@@H](CCCCN)C(=O)N1CCC[C@H]1C(N)=O)C(C)C)[C@@H](C)O)[C@@H](C)O)C(C)C [SEQ ID NO 6]	15.4 ± 5.8	15.3 ± 4.8	No inhibition	None	–	–
CSCC[C@H](NC(C)=O)C(=O)N[C@@H](C)C(=O)N[C@@H](CC(N)=O)C(=O)N[C@@H](CC(C)C)C(=O)NCC(=O)N[C@@H](Cc1ccc(O)cc1)C(=O)N[C@@H](Cc1c[nH]c2ccccc12)C(=O)N[C@@H](CC(C)C)C(=O)N[C@@H](Cc1ccc(O)cc1)C(=O)N[C@@H](C)C(=O)N[C@@H](CC(C)C)C(=O)N[C@@H](Cc1ccccc1)C(=O)N[C@@H](CC(C)C)C(=O)N[C@H](C(=O)N[C@@H](CCSC)C(=O)N[C@H](C(=O)N[C@H](C(=O)N[C@@H](CC(=O)O)C(=O)N[C@H](C(=O)NCC(=O)N[C@@H](CC(C)C)C(=O)N[C@@H](Cc1ccccc1)C(=O)N[C@@H](CCCCN)C(=O)N[C@@H](CCCCN)C(=O)N[C@@H](CCCNC(=N)N)C(=O)N1CCC[C@H]1C(=O)N[C@@H](CCCCN)C(=O)N1CCC[C@H]1C(N)=O)C(C)C)[C@@H](C)O)C(C)C)[C@@H](C)O [SEQ ID NO 7]	34.2 ± 5.5	41.9 ± 6.4	No inhibition	None	–	–
Ac-KDLMVQWFKDGGPSSGAPPPS-NH2 [SEQ ID NO 8]	–	–	–	–	0.79	IC50 (IRF5 (222-467, S430D); Table 2, S430D phosphomimetic construct of IRF5 (222-467), read-out: S430D IC50): 1.68 µM
Ac-MIILIISFPKHKDWKVILVK-NH2 [SEQ ID NO 14]	–	–	No inhibition	None	–	–
Ac-IRLQISNPDLKDLMVQWFKDGGPSSGAPPPS-NH2 [SEQ ID NO 9]	–	–	–	–	1.4	–
